The EC50 is the concentration needed to bring the measured effect to its halfway point.

One compound from patent publication US6872805B2 (Bristol-Myers Squibb Company, priority 2000, dated 2005) can be followed below.

This test concerns HCV replicon in Huh7 cells. The experiment in a line: HCV replicon cell-based assay. Further details: species or system HCV strain 1B. Particulars: Hepatitis C virus, HCV replicon, Huh7 cells. The method, boiled down: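 Genotype 1b subgenomic replicon Huh7 cells exposed to compound 4 days at 37° C in 4% FCS, 0.5% DMSO medium. EC50 from TaqMan RT-PCR of HCV RNA, normalized to total RNA by RiboGreen; CC50 from alamar Blue fluorescence after 4 h.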
A general note: In antiviral work, replicon cells carry a viral genome segment that copies itself.

Each structure is given as a SMILES string. Like-named read-outs stand apart in the source and are kept apart here.

As to `C=CC1C[C@]1(NC(=O)[C@@H]1C[C@@H](Oc2cc(-c3ccccc3)nc3cc(OC)ccc23)CN1C(=O)C(NC(=O)OC(C)(C)C)C(C)(C)C)C(=O)NS(=O)(=O)c1ccc(NC(C)=O)cc1` (some centres unmarked) [Compound 58], the EC50 by setting is: (Huh-7, 96 h, 4 days, activity ranges, read-out: EC50) < 500 nM; (Huh-7, read-out: EC50 value in the replicon assay) 250 nM.
